Molecules are shown by their SMILES.

Chain of baculovirus-expressed ALK (Q9UM73 19-1620): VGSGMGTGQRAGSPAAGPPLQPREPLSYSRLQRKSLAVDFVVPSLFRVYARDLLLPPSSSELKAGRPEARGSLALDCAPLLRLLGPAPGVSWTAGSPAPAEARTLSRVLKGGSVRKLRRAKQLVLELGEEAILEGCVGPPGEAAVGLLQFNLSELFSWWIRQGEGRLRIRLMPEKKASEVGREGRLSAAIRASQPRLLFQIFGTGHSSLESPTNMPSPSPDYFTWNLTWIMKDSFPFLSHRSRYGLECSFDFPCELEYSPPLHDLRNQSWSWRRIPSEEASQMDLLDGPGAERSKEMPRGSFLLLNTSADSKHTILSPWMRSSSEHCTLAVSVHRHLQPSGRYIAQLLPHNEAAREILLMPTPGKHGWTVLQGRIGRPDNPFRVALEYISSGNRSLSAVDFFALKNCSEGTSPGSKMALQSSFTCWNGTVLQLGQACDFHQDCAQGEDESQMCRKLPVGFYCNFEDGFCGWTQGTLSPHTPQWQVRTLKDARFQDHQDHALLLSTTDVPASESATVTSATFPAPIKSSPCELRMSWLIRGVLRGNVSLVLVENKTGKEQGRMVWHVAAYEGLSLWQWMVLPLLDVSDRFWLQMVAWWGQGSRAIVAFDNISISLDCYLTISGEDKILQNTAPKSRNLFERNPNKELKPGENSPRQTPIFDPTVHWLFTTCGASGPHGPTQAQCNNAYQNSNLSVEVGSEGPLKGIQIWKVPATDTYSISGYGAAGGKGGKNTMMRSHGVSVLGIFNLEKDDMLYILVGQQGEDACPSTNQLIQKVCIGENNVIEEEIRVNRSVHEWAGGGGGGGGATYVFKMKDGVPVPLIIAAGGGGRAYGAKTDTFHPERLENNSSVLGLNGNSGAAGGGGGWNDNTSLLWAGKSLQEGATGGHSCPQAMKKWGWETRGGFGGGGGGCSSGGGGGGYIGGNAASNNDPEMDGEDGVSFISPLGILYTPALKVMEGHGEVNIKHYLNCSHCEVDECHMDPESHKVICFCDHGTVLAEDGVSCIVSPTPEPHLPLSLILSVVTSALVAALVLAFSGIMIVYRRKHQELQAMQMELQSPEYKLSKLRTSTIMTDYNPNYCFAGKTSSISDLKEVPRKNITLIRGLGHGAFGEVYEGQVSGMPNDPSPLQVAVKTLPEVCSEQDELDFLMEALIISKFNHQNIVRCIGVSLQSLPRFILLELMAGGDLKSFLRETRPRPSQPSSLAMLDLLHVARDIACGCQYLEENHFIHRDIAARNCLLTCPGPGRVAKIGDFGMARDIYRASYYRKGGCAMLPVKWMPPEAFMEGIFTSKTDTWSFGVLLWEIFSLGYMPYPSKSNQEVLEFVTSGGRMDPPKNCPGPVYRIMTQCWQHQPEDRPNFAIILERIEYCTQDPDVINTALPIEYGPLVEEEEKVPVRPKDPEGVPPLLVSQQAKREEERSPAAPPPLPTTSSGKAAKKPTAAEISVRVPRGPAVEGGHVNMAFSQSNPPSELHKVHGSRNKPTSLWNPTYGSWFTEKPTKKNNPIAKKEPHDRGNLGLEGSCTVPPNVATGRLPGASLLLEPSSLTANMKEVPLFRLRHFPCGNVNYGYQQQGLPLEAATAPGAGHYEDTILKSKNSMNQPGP

This assay deals with baculovirus-expressed ALK (Homo sapiens, UniProt Q9UM73). Briefly: ALK Kinase Assay (ELISA/TRF, PLC-γ substrate). Further: 1 µM ATP (Km level). The assay is classed as biochemical. The settings on record: read-out: ALK Kinase Inhibition (IC50). In a few lines:
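Plates coated with GST–PLC-γ fusion substrate (10 μg/mL in TBS); reaction started with 30 ng/ml ALK, run 15 minutes at 37° C. Phosphotyrosine detected by Eu-N1 PT66 antibody (1 hour, 37° C) and time-resolved fluorescence after enhancement. IC50 from sigmoidal variable-slope fit of percent inhibition versus log concentration.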
(ELISA stands for enzyme-linked immunosorbent assay.)
As for `O=C(c1ccccc1)N1CCN(C(=O)c2ccc(-c3cnc4c(c3)N(Cc3cc(Cl)ccc3C(F)(F)F)CCN4)cc2)CC1` [Example 385, (4-Benzoylpiperazin-1-yl)-(4-{1-[5-chloro-2-(trifluoromethyl)benzyl]-1,2,3,4-tetrahydropyrido[2,3-b]pyrazin-7-yl}phenyl)methanone], the concentration for half-maximal inhibition (IC50) was below 100 nM. With `NS(=O)(=O)c1ccc(CNC(=O)c2cccc(-c3cnc4c(c3)N(Cc3cc(Cl)ccc3C(F)(F)F)CCN4)c2)cc1` [Example 363, 3-{1-[5-Chloro-2-(trifluoromethyl)benzyl]-1,2,3,4-tetrahydropyrido[2,3-b]pyrazin-7-yl}-N-(4-sulfamoylbenzyl)benzamide], the IC50 was in the range of 100 to 1000 nM.

For `O=C(c1cccc(-c2cnc3c(c2)N(Cc2cc(Cl)ccc2C(F)(F)F)CCN3)c1)N1CCN(c2cccc(C(F)(F)F)c2)CC1` [Example 312, (3-{1-[5-Chloro-2-(trifluoromethyl)benzyl]-1,2,3,4-tetrahydropyrido[2,3-b]pyrazin-7-yl}phenyl)-{4-[3-(trifluoromethyl)phenyl]piperazin-1-yl}methanone], the IC50 fell in the range of 100 to 1000 nM. As to `O=C(NCc1cccnc1)c1ccc(-c2cnc3c(c2)N(Cc2cc(Cl)ccc2C(F)(F)F)CCN3)cc1` [Example 401, 4-{1-[5-Chloro-2-(trifluoromethyl)benzyl]-1,2,3,4-tetrahydropyrido[2,3-b]pyrazin-7-yl}-N-pyridin-3-ylmethylbenzamide], the IC50 lay in the range of 100 to 1000 nM. Consider `O=C(NC1CCN(Cc2ccccc2)CC1)c1cccc(-c2cnc3c(c2)N(Cc2cc(Cl)ccc2C(F)(F)F)CCN3)c1` [Example 327, N-(1-Benzylpiperidin-4-yl)-3-{1-[5-chloro-2-(trifluoromethyl)benzyl]-1,2,3,4-tetrahydropyrido[2,3-b]pyrazin-7-yl}benzamide], for which the IC50 is below 100 nM.

As to `O=C(NC(c1ccccc1)c1ccccc1)c1cccc(-c2cnc3c(c2)N(Cc2cc(Cl)ccc2C(F)(F)F)CCN3)c1` [Example 333, N-Benzhydryl-3-{1-[5-chloro-2-(trifluoromethyl)benzyl]-1,2,3,4-tetrahydropyrido[2,3-b]pyrazin-7-yl}benzamide], the IC50 fell in the range of 100 to 1000 nM. Next, `O=C(c1cccc(-c2cnc3c(c2)N(Cc2cc(Cl)ccc2C(F)(F)F)CCN3)c1)N1CCC(c2c[nH]c3ccccc23)CC1` [Example 314, (3-{1-[5-Chloro-2-(trifluoromethyl)benzyl]-1,2,3,4-tetrahydropyrido[2,3-b]pyrazin-7-yl}phenyl)-[4-(1H-indol-3-yl)piperidin-1-yl]methanone]: 100 to 1000 nM. In the case of `O=C(c1ccc(-c2cnc3c(c2)N(Cc2cc(Cl)ccc2C(F)(F)F)CCN3)cc1)N1CCN(c2cccc(Cl)c2)CC1` [Example 422, [4-(3-Chlorophenyl)piperazin-1-yl]-(4-{1-[5-chloro-2-(trifluoromethyl)benzyl]-1,2,3,4-tetrahydropyrido[2,3-b]pyrazin-7-yl}phenyl)methanone] it was 100 to 1000 nM; in that of `NS(=O)(=O)c1ccc(CNC(=O)c2ccc(-c3cnc4c(c3)N(Cc3cc(Cl)ccc3C(F)(F)F)CCN4)cc2)cc1` [Example 429, 4-{1-[5-Chloro-2-(trifluoromethyl)benzyl]-1,2,3,4-tetrahydropyrido[2,3-b]pyrazin-7-yl}-N-(4-sulfamoylbenzyl)benzamide], 100 to 1000 nM. As to `O=C(c1ccc(-c2cnc3c(c2)N(Cc2cc(Cl)ccc2C(F)(F)F)CCN3)cc1)N1CCN(c2ccc(Cl)cc2)CC1` [Example 370, [4-(4-Chlorophenyl)piperazin-1-yl]-(4-{1-[5-chloro-2-(trifluoromethyl)benzyl]-1,2,3,4-tetrahydropyrido[2,3-b]pyrazin-7-yl}phenyl)methanone], the IC50 lay in the range of 100 to 1000 nM. Next, `O=C(c1ccc(-c2cnc3c(c2)N(Cc2cc(Cl)ccc2C(F)(F)F)CCN3)cc1)N1Cc2ccccc2C1` [Example 433, (4-{1-[5-Chloro-2-(trifluoromethyl)benzyl]-1,2,3,4-tetrahydropyrido[2,3-b]pyrazin-7-yl}phenyl)-(1,3-dihydroisoindol-2-yl)methanone]: 100 to 1000 nM. Consider `O=C(NCC1CCCO1)c1cccc(-c2cnc3c(c2)N(Cc2cc(Cl)ccc2C(F)(F)F)CCN3)c1` (stereo not drawn) [Example 352, 3-{1-[5-Chloro-2-(trifluoromethyl)benzyl]-1,2,3,4-tetrahydropyrido[2,3-b]pyrazin-7-yl}-N-(tetrahydrofuran-2-ylmethyl)benzamide], for which the IC50 was in the range of 100 to 1000 nM. `O=C(c1ccc(-c2cnc3c(c2)N(Cc2cc(Cl)ccc2C(F)(F)F)CCN3)cc1)N1CCN(Cc2ccc(Cl)cc2)CC1` [Example 383, [4-(4-Chlorobenzyl)piperazin-1-yl]-(4-{1-[5-chloro-2-(trifluoromethyl)benzyl]-1,2,3,4-tetrahydropyrido[2,3-b]pyrazin-7-yl}phenyl)methanone]: the half-maximal inhibitory concentration (IC50) lay within 100 to 1000 nM.

Consider `O=C(NCc1cc(C(F)(F)F)cc(C(F)(F)F)c1)c1cccc(-c2cnc3c(c2)N(Cc2cc(Cl)ccc2C(F)(F)F)CCN3)c1` [Example 332, N-[3,5-Bis(trifluoromethyl)benzyl]-3-{1-[5-chloro-2-(trifluoromethyl)benzyl]-1,2,3,4-tetrahydropyrido[2,3-b]pyrazin-7-yl}benzamide], for which the half-maximal inhibitory concentration (IC50) was in the range of 100 to 1000 nM. In the case of `NS(=O)(=O)c1ccc(CCNC(=O)c2cccc(-c3cnc4c(c3)N(Cc3cc(Cl)ccc3C(F)(F)F)CCN4)c2)cc1` [Example 338, 3-{1-[5-Chloro-2-(trifluoromethyl)benzyl]-1,2,3,4-tetrahydropyrido[2,3-b]pyrazin-7-yl}-N-[2-(4-sulfamoylphenyl)ethyl]benzamide], the 50% inhibitory concentration (IC50) lay within 100 to 1000 nM. With `O=C(c1ccc(-c2cnc3c(c2)N(Cc2cc(Cl)ccc2C(F)(F)F)CCN3)cc1)N1CCN(c2ccccc2)CC1` [Example 368, (4-{1-[5-Chloro-2-(trifluoromethyl)benzyl]-1,2,3,4-tetrahydropyrido[2,3-b]pyrazin-7-yl}phenyl)-(4-phenylpiperazin-1-yl)methanone], the concentration for half-maximal inhibition (IC50) lay in the range of 100 to 1000 nM.

For the molecule `O=C(c1ccc(-c2cnc3c(c2)N(Cc2cc(Cl)ccc2C(F)(F)F)CCN3)cc1)N1CCN(C(c2ccccc2)c2ccccc2)CC1` [Example 377, (4-Benzhydrylpiperazin-1-yl)-(4-{1-[5-chloro-2-(trifluoromethyl)benzyl]-1,2,3,4-tetrahydropyrido[2,3-b]pyrazin-7-yl}phenyl)methanone], the concentration for half-maximal inhibition (IC50) is 1000 to 10000 nM. Regarding `O=C(c1ccc(-c2cnc3c(c2)N(Cc2cc(Cl)ccc2C(F)(F)F)CCN3)cc1)N1CCOCC1` [Example 408, (4-{1-[5-Chloro-2-(trifluoromethyl)benzyl]-1,2,3,4-tetrahydropyrido[2,3-b]pyrazin-7-yl}phenyl)morpholin-4-ylmethanone], the concentration for half-maximal inhibition (IC50) was in the range of 100 to 1000 nM.

As for `O=C(NCCc1ccccc1)c1ccc(-c2cnc3c(c2)N(Cc2cc(Cl)ccc2C(F)(F)F)CCN3)cc1` [Example 416, 4-{1-[5-Chloro-2-(trifluoromethyl)benzyl]-1,2,3,4-tetrahydropyrido[2,3-b]pyrazin-7-yl}-N-phenethylbenzamide], the half-inhibitory concentration (IC50) was 100 to 1000 nM. For the molecule `O=C(c1ccc(-c2cnc3c(c2)N(Cc2cc(Cl)ccc2C(F)(F)F)CCN3)cc1)N1CCC(n2c(=O)[nH]c3ccccc32)CC1` [Example 372, 1-[1-(4-{1-[5-Chloro-2-(trifluoromethyl)benzyl]-1,2,3,4-tetrahydropyrido[2,3-b]pyrazin-7-yl}benzoyl)piperidin-4-yl]-1,3-dihydrobenzoimidazol-2-one], the IC50 is 100 to 1000 nM. In the case of `O=C(c1ccc(-c2cnc3c(c2)N(Cc2cc(Cl)ccc2C(F)(F)F)CCN3)cc1)N1CCN(CCc2ccccc2)CC1` [Example 424, (4-{1-[5-Chloro-2-(trifluoromethyl)benzyl]-1,2,3,4-tetrahydropyrido[2,3-b]pyrazin-7-yl}phenyl)-(4-phenethylpiperazin-1-yl)methanone], the 50% inhibitory concentration (IC50) lay within 100 to 1000 nM.

As for `O=C(c1cccc(-c2cnc3c(c2)N(Cc2cc(Cl)ccc2C(F)(F)F)CCN3)c1)N1CCN(c2ccccc2C(F)(F)F)CC1` [Example 319, (3-{1-[5-Chloro-2-(trifluoromethyl)benzyl]-1,2,3,4-tetrahydropyrido[2,3-b]pyrazin-7-yl}phenyl)-{4-[2-(trifluoromethyl)phenyl]piperazin-1-yl}methanone], the 50% inhibitory concentration (IC50) was in the range of 100 to 1000 nM. Next, `O=C(NCc1ccncc1)c1cccc(-c2cnc3c(c2)N(Cc2cc(Cl)ccc2C(F)(F)F)CCN3)c1` [Example 334, 3-{1-[5-Chloro-2-(trifluoromethyl)benzyl]-1,2,3,4-tetrahydropyrido[2,3-b]pyrazin-7-yl}-N-pyridin-4-ylmethylbenzamide]: below 100 nM. Consider `O=C(c1ccc(-c2cnc3c(c2)N(Cc2cc(Cl)ccc2C(F)(F)F)CCN3)cc1)N1CCCC1c1cccnc1` (stereo not drawn) [Example 431, (4-{1-[5-Chloro-2-(trifluoromethyl)benzyl]-1,2,3,4-tetrahydropyrido[2,3-b]pyrazin-7-yl}phenyl)-(2-pyridin-3-yl-pyrrolidin-1-yl)methanone], for which the concentration for half-maximal inhibition (IC50) was in the range of 100 to 1000 nM.

Take `O=C(c1ccc(-c2cnc3c(c2)N(Cc2cc(Cl)ccc2C(F)(F)F)CCN3)cc1)N1CCN(c2cnccn2)CC1` [Example 406, (4-{1-[5-Chloro-2-(trifluoromethyl)benzyl]-1,2,3,4-tetrahydropyrido[2,3-b]pyrazin-7-yl}phenyl)-(2,3,5,6-tetrahydro[1,2′]bipyrazinyl-4-yl)methanone]: the IC50 was below 100 nM. With `O=C(NCc1ccccc1Cl)c1cccc(-c2cnc3c(c2)N(Cc2cc(Cl)ccc2C(F)(F)F)CCN3)c1` [Example 348, N-(2-Chlorobenzyl)-3-{1-[5-Chloro-2-(trifluoromethyl)benzyl]-1,2,3,4-tetrahydropyrido[2,3-b]pyrazin-7-yl}benzamide], the concentration for half-maximal inhibition (IC50) lay in the range of 100 to 1000 nM. In the case of `COc1cccc(N2CCN(C(=O)c3cccc(-c4cnc5c(c4)N(Cc4cc(Cl)ccc4C(F)(F)F)CCN5)c3)CC2)c1` [Example 344, (3-{1-[5-Chloro-2-(trifluoromethyl)benzyl]-1,2,3,4-tetrahydropyrido[2,3-b]pyrazin-7-yl}phenyl)-[4-(3-methoxyphenyl)piperazin-1-yl]methanone] it was 100 to 1000 nM.

As a reminder, the IC50 is the midpoint of a concentration-inhibition curve.

These data come from US7601716B2, “Pyridopyrazines and derivatives thereof as ALK and c-Met inhibitors” (Cephalon, Inc., priority 2006, dated 2009).
